Assay results published in the NIST ThermoML archive (doi:10.1007/s10765-013-1526-8).
± gives the expanded uncertainty stated by the source.

Legend:
[1] = xn = mol fraction of the nth substance listed; conditions: 101 kPa, Liquid; for speed of sound: Sing-around technique in a fixed-path interferometer
[2] = refractive index (Na D-line) (dimensionless); xn = mol fraction of the nth substance listed; conditions: 101 kPa, Liquid

CCCCC(CC)CO (stereo not given) [2-ethyl-1-hexanol] + c1ccccc1
Conditions	mass density, [1] [kg/m3]	refractive index, [2]	speed of sound, [1] [m/s]	viscosity, [1] [mPa·s]
298.15 K, x2 = 0	829.07 ± 0.82	1.4287 ± 0.0019	1319 ± 10	8.418 ± 0.65
298.15 K, x2 = 0.0606	829.89 ± 0.81	1.4332 ± 0.0019	1313 ± 10	7.185 ± 0.57
298.15 K, x2 = 0.1203	830.77 ± 0.81	1.4376 ± 0.0019	1308 ± 10	6.102 ± 0.5
298.15 K, x2 = 0.1798	831.79 ± 0.8	1.4418 ± 0.0019	1304 ± 10	5.153 ± 0.45
298.15 K, x2 = 0.2384	832.95 ± 0.8	1.4463 ± 0.0019	1299 ± 10	4.364 ± 0.38
298.15 K, x2 = 0.3132	834.73 ± 0.79	1.4519 ± 0.0019	1293 ± 10	3.469 ± 0.31
298.15 K, x2 = 0.3915	836.9 ± 0.78	1.4577 ± 0.0019	1288 ± 10	2.697 ± 0.24
298.15 K, x2 = 0.4515	838.87 ± 0.78	1.4624 ± 0.0019	1283 ± 10	2.222 ± 0.2
298.15 K, x2 = 0.526	841.73 ± 0.77	1.468 ± 0.0019	1278 ± 10	1.749 ± 0.16
298.15 K, x2 = 0.5849	844.27 ± 0.76	1.4726 ± 0.0019	1275 ± 10	1.474 ± 0.14
298.15 K, x2 = 0.6557	847.83 ± 0.74	1.4778 ± 0.0019	1273 ± 10	1.202 ± 0.12
298.15 K, x2 = 0.726	851.85 ± 0.73	1.4829 ± 0.0019	1272 ± 10	1.008 ± 0.1
298.15 K, x2 = 0.7937	856.26 ± 0.72	1.4877 ± 0.0019	1273 ± 10	0.866 ± 0.087
298.15 K, x2 = 0.8592	861.07 ± 0.7	1.492 ± 0.0019	1276 ± 10	0.764 ± 0.078
298.15 K, x2 = 0.9299	867.04 ± 0.68	1.4953 ± 0.0019	1284 ± 10	0.68 ± 0.071
303.15 K, x2 = 0	825.39 ± 0.83	1.4266 ± 0.0019	1301 ± 10	7.144 ± 0.57
303.15 K, x2 = 0.0606	826.11 ± 0.82	1.4312 ± 0.0019	1297 ± 10	5.969 ± 0.5
303.15 K, x2 = 0.1203	826.92 ± 0.82	1.4355 ± 0.0019	1292 ± 10	4.984 ± 0.43
303.15 K, x2 = 0.1798	827.89 ± 0.82	1.4397 ± 0.0019	1287 ± 10	4.114 ± 0.36
303.15 K, x2 = 0.2384	828.98 ± 0.81	1.4442 ± 0.0019	1282 ± 10	3.409 ± 0.3
303.15 K, x2 = 0.3132	830.66 ± 0.8	1.4499 ± 0.0019	1275 ± 10	2.624 ± 0.24
303.15 K, x2 = 0.3915	832.74 ± 0.8	1.4557 ± 0.0019	1269 ± 10	2.002 ± 0.18
303.15 K, x2 = 0.4515	834.63 ± 0.79	1.4604 ± 0.0019	1264 ± 10	1.621 ± 0.15
303.15 K, x2 = 0.526	837.35 ± 0.78	1.4661 ± 0.0019	1258 ± 10	1.305 ± 0.12
303.15 K, x2 = 0.5849	839.78 ± 0.77	1.4708 ± 0.0019	1255 ± 10	1.127 ± 0.11
303.15 K, x2 = 0.6557	843.22 ± 0.76	1.4761 ± 0.0019	1252 ± 10	0.953 ± 0.095
303.15 K, x2 = 0.726	847.09 ± 0.75	1.4811 ± 0.0019	1252 ± 10	0.852 ± 0.086
303.15 K, x2 = 0.7937	851.36 ± 0.73	1.4858 ± 0.0019	1253 ± 10	0.758 ± 0.078
303.15 K, x2 = 0.8592	856.01 ± 0.72	1.4899 ± 0.0019	1256 ± 10	0.701 ± 0.073
303.15 K, x2 = 0.9299	861.77 ± 0.7	1.4934 ± 0.0019	1264 ± 10	0.654 ± 0.069
308.15 K, x2 = 0	821.68 ± 0.84	1.4245 ± 0.0019	1283 ± 10	6.09 ± 0.5
308.15 K, x2 = 0.0606	822.28 ± 0.84	1.4292 ± 0.0019	1278 ± 10	5.084 ± 0.44
308.15 K, x2 = 0.1203	823.05 ± 0.83	1.4335 ± 0.0019	1273 ± 10	4.22 ± 0.37
308.15 K, x2 = 0.1798	823.96 ± 0.83	1.4378 ± 0.0019	1269 ± 10	3.49 ± 0.31
308.15 K, x2 = 0.2384	825.01 ± 0.82	1.4423 ± 0.0019	1265 ± 10	2.903 ± 0.26
308.15 K, x2 = 0.3132	826.61 ± 0.82	1.448 ± 0.0019	1260 ± 10	2.272 ± 0.21
308.15 K, x2 = 0.3915	828.57 ± 0.81	1.4539 ± 0.0019	1255 ± 10	1.741 ± 0.16
308.15 K, x2 = 0.4515	830.4 ± 0.8	1.4585 ± 0.0019	1252 ± 10	1.451 ± 0.14
308.15 K, x2 = 0.526	832.98 ± 0.79	1.4642 ± 0.0019	1248 ± 10	1.174 ± 0.11
308.15 K, x2 = 0.5849	835.32 ± 0.78	1.4689 ± 0.0019	1245 ± 10	1.02 ± 0.1
308.15 K, x2 = 0.6557	838.62 ± 0.77	1.4743 ± 0.0019	1242 ± 10	0.881 ± 0.088
308.15 K, x2 = 0.726	842.36 ± 0.76	1.4793 ± 0.0019	1240 ± 10	0.785 ± 0.08
308.15 K, x2 = 0.7937	846.49 ± 0.75	1.4839 ± 0.0019	1239 ± 10	0.713 ± 0.074
308.15 K, x2 = 0.8592	850.99 ± 0.73	1.4879 ± 0.0019	1240 ± 10	0.659 ± 0.069
308.15 K, x2 = 0.9299	856.56 ± 0.71	1.4913 ± 0.0019	1243 ± 10	0.605 ± 0.065
